Source: ChEMBL document CHEMBL4308841, “Synthesis, in vitro antiproliferative activity, and kinase inhibitory effects of pyrazole-containing diarylureas and diarylamides” (Eur J Med Chem, 2018)

Tests used:
A549 = test: Growth inhibition of human A549/ATCC cells incubated for 48 hrs by sulforhodamine B assay; format: functional, cell-based; details: A549, 48 h
COLO 205 = test: Growth inhibition of human COLO205 cells incubated for 48 hrs by sulforhodamine B assay; format: functional, cell-based; details: COLO 205, 48 h
HCT-116 = test: Growth inhibition of human HCT116 cells incubated for 48 hrs by sulforhodamine B assay; format: functional, cell-based; details: HCT-116, 48 h
T47D = test: Growth inhibition of human T47D cells incubated for 48 hrs by sulforhodamine B assay; format: functional, cell-based
MDA-MB-468 [1] = test: Growth inhibition of human MDA-MB-468 cells incubated for 48 hrs by sulforhodamine B assay; format: functional, cell-based; details: MDA-MB-468, 48 h
RPMI-8226 = test: Growth inhibition of human RPMI8226 cells assessed as cell growth at 0.01 uM incubated for 48 hrs by sulforhodamine B assay relative to control; format: functional; details: RPMI-8226, 48 h, read-out: Activity
SF-268 = test: Growth inhibition of human SF268 cells assessed as cell growth at 0.01 uM incubated for 48 hrs by sulforhodamine B assay relative to control; format: functional; details: SF-268, 48 h, read-out: Activity
SNB-19 = test: Growth inhibition of human SNB19 cells assessed as cell growth at 0.01 uM incubated for 48 hrs by sulforhodamine B assay relative to control; format: functional; details: SNB-19, 48 h, read-out: Activity
LOX IMVI = test: Growth inhibition of human LOXIMVI cells assessed as cell growth at 0.01 uM incubated for 48 hrs by sulforhodamine B assay relative to control; format: functional; details: read-out: Activity
UACC-62 = test: Growth inhibition of human UACC62 cells assessed as cell growth at 0.01 uM incubated for 48 hrs by sulforhodamine B assay relative to control; format: functional; details: UACC-62, 48 h, read-out: Activity
OVCAR-5 = test: Growth inhibition of human OVCAR5 cells assessed as cell growth at 0.01 uM incubated for 48 hrs by sulforhodamine B assay relative to control; format: functional; details: OVCAR-5, 48 h, read-out: Activity
MCF7 = test: Growth inhibition of human MCF7 cells assessed as cell growth at 0.01 uM incubated for 48 hrs by sulforhodamine B assay relative to control; format: functional; details: MCF7, 48 h, read-out: Activity
K562 [2] = test: Growth inhibition of human K562 cells assessed as cell growth at 0.1 uM incubated for 48 hrs by sulforhodamine B assay relative to control; format: functional; details: K562, 48 h, read-out: Activity
SNB-75 = test: Growth inhibition of human SNB75 cells assessed as cell growth at 0.1 uM incubated for 48 hrs by sulforhodamine B assay relative to control; format: functional; details: SNB-75, 48 h, read-out: Activity
SK-MEL-5 [3] = test: Growth inhibition of human SK-MEL-5 cells assessed as cell growth at 0.1 uM incubated for 48 hrs by sulforhodamine B assay relative to control; format: functional; details: SK-MEL-5, 48 h, read-out: Activity
NCI/ADR-RES = test: Growth inhibition of human NCI/ADR-RES cells assessed as cell growth at 0.1 uM incubated for 48 hrs by sulforhodamine B assay relative to control; format: functional; details: read-out: Activity
786-0 = test: Growth inhibition of human 786-0 cells assessed as cell growth at 0.1 uM incubated for 48 hrs by sulforhodamine B assay relative to control; format: functional; details: 786-0, 48 h, read-out: Activity
CAKI-1 = test: Growth inhibition of human Caki1 cells assessed as cell growth at 0.1 uM incubated for 48 hrs by sulforhodamine B assay relative to control; format: functional; details: CAKI-1, 48 h, read-out: Activity
SN12C = test: Growth inhibition of human SN12C cells assessed as cell growth at 0.1 uM incubated for 48 hrs by sulforhodamine B assay relative to control; format: functional; details: read-out: Activity
NCI-H226 = test: Growth inhibition of human NCI-H226 cells assessed as cell growth at 1 uM incubated for 48 hrs by sulforhodamine B assay relative to control; format: functional; details: NCI-H226, 48 h, read-out: Activity
NCI-H23 [4] = test: Growth inhibition of human NCI-H23 cells assessed as cell growth at 1 uM incubated for 48 hrs by sulforhodamine B assay relative to control; format: functional; details: NCI-H23, 48 h, read-out: Activity
NCI-H322M = test: Growth inhibition of human NCI-H322M cells assessed as cell growth at 1 uM incubated for 48 hrs by sulforhodamine B assay relative to control; format: functional; details: read-out: Activity
HCT-15 = test: Growth inhibition of human HCT15 cells assessed as cell growth at 1 uM incubated for 48 hrs by sulforhodamine B assay relative to control; format: functional; details: HCT-15, 48 h, read-out: Activity
HT-29 = test: Growth inhibition of human HT-29 cells assessed as cell growth at 1 uM incubated for 48 hrs by sulforhodamine B assay relative to control; format: functional; details: HT-29, 48 h, read-out: Activity
MDA-MB-468 [5] = test: Growth inhibition of human MDA-MB-468 cells assessed as cell growth at 1 uM incubated for 48 hrs by sulforhodamine B assay relative to control; format: functional; details: MDA-MB-468, 48 h, read-out: Activity
K562 [6] = test: Growth inhibition of human K562 cells assessed as cell growth at 100 uM incubated for 48 hrs by sulforhodamine B assay relative to control; format: functional; details: K562, 48 h, read-out: Activity
NCI-H23 [7] = test: Growth inhibition of human NCI-H23 cells assessed as cell growth at 100 uM incubated for 48 hrs by sulforhodamine B assay relative to control; format: functional; details: NCI-H23, 48 h, read-out: Activity
KM12 = test: Growth inhibition of human KM12 cells assessed as cell growth at 100 uM incubated for 48 hrs by sulforhodamine B assay relative to control; format: functional; details: KM12, 48 h, read-out: Activity
SK-MEL-5 [8] = test: Growth inhibition of human SK-MEL-5 cells assessed as cell growth at 100 uM incubated for 48 hrs by sulforhodamine B assay relative to control; format: functional; details: SK-MEL-5, 48 h, read-out: Activity
[9] = read-out: LC50 (the source's name)
[10] = read-out: pLC50 (the source's name) (converted)

COc1cc(Cl)cc(-c2nn(-c3cccc(NC(=O)Nc4ccc(Cl)c(C(F)(F)F)c4)c3)cc2-c2ccncc2)c1
IC50 (A549): 680 nM | GI50 (A549; read-out: GI50): 676 nM | CC50 (A549; [9]): 4.32 µM | TGI (A549; read-out: TGI): 10.6 µM | GI50 (A549; read-out: pGI50 (converted)): 676 nM | CC50 (A549; [10]): 46.8 µM | TGI (A549; read-out: pTGI (converted)): 10.7 µM | GI50 (COLO 205; read-out: GI50): 1530 nM | CC50 (COLO 205; [9]): 6.33 µM | TGI (COLO 205; read-out: TGI): 31.1 µM | GI50 (COLO 205; read-out: pGI50 (converted)): 1510 nM | CC50 (COLO 205; [10]): 6.31 µM | TGI (COLO 205; read-out: pTGI (converted)): 3.09 µM | IC50 (HCT-116): 630 nM | GI50 (HCT-116; read-out: GI50): 631 nM | CC50 (HCT-116; [9]): 7.3 µM | TGI (HCT-116; read-out: TGI): 23.6 µM | GI50 (HCT-116; read-out: pGI50 (converted)): 631 nM | CC50 (HCT-116; [10]): 7.24 µM | TGI (HCT-116; read-out: pTGI (converted)): 2.34 µM | GI50 (T47D; read-out: GI50): 1250 nM | CC50 (T47D; [9]): > 100 µM | TGI (T47D; read-out: TGI): 80.2 µM | GI50 (T47D; read-out: pGI50 (converted)): 1260 nM | CC50 (T47D; [10]): > 100 µM | TGI (T47D; read-out: pTGI (converted)): 7.94 µM | IC50 (MDA-MB-468 [1]): 990 nM | GI50 (MDA-MB-468 [1]; read-out: GI50): 900 nM | CC50 (MDA-MB-468 [1]; [9]): > 100 µM | TGI (MDA-MB-468 [1]; read-out: TGI): 54.7 µM | GI50 (MDA-MB-468 [1]; read-out: pGI50 (converted)): 1000 nM | CC50 (MDA-MB-468 [1]; [10]): > 100 µM | TGI (MDA-MB-468 [1]; read-out: pTGI (converted)): 5.5 µM | growth at 0.01 µM (RPMI-8226): 97% | growth at 0.01 µM (SF-268): 95% | growth at 0.01 µM (SNB-19): 92% | growth at 0.01 µM (LOX IMVI): 98% | growth at 0.01 µM (UACC-62): 95% | growth at 0.01 µM (OVCAR-5): 54% | growth at 0.01 µM (MCF7): 90% | growth at 0.1 µM (K562 [2]): 91% | growth at 0.1 µM (SNB-75): 52% | growth at 0.1 µM (SK-MEL-5 [3]): 98% | growth at 0.1 µM (NCI/ADR-RES): 69% | growth at 0.1 µM (786-0): 96% | growth at 0.1 µM (CAKI-1): 99% | growth at 0.1 µM (SN12C): 100% | growth at 1 µM (NCI-H226): 79% | growth at 1 µM (NCI-H23 [4]): 60% | growth at 1 µM (NCI-H322M): 89% | growth at 1 µM (HCT-15): 35% | growth at 1 µM (HT-29): 55% | growth at 1 µM (MDA-MB-468 [5]): 50% | growth at 100 µM (K562 [6]): -51% | growth at 100 µM (NCI-H23 [7]): -50% | growth at 100 µM (KM12): -70% | growth at 100 µM (SK-MEL-5 [8]): -77%

COc1cc(Cl)cc(-c2nn(-c3cccc(NC(=O)Nc4ccc(Cl)c(Cl)c4)c3)cc2-c2ccncc2)c1
IC50 (A549): 1480 nM | GI50 (A549; read-out: GI50): 1480 nM | CC50 (A549; [9]): > 100 µM | TGI (A549; read-out: TGI): 15.3 µM | GI50 (A549; read-out: pGI50 (converted)): 1480 nM | CC50 (A549; [10]): > 100 µM | TGI (A549; read-out: pTGI (converted)): 15.5 µM | GI50 (COLO 205; read-out: GI50): 1710 nM | CC50 (COLO 205; [9]): 6.4 µM | TGI (COLO 205; read-out: TGI): 33.1 µM | GI50 (COLO 205; read-out: pGI50 (converted)): 1700 nM | CC50 (COLO 205; [10]): 6.46 µM | TGI (COLO 205; read-out: pTGI (converted)): 3.31 µM | IC50 (HCT-116): 2020 nM | GI50 (HCT-116; read-out: GI50): 2020 nM | CC50 (HCT-116; [9]): > 100 µM | TGI (HCT-116; read-out: TGI): > 100 µM | GI50 (HCT-116; read-out: pGI50 (converted)): 2040 nM | CC50 (HCT-116; [10]): > 100 µM | TGI (HCT-116; read-out: pTGI (converted)): > 100 µM | GI50 (T47D; read-out: GI50): 2780 nM | CC50 (T47D; [9]): > 100 µM | TGI (T47D; read-out: TGI): 15.9 µM | GI50 (T47D; read-out: pGI50 (converted)): 2750 nM | CC50 (T47D; [10]): > 100 µM | TGI (T47D; read-out: pTGI (converted)): 19.1 µM | IC50 (MDA-MB-468 [1]): 1740 nM | GI50 (MDA-MB-468 [1]; read-out: GI50): 1740 nM | CC50 (MDA-MB-468 [1]; [9]): > 100 µM | TGI (MDA-MB-468 [1]; read-out: TGI): 73.7 µM | GI50 (MDA-MB-468 [1]; read-out: pGI50 (converted)): 1740 nM | CC50 (MDA-MB-468 [1]; [10]): > 100 µM | TGI (MDA-MB-468 [1]; read-out: pTGI (converted)): 7.41 µM | growth at 0.01 µM (RPMI-8226): 99% | growth at 0.01 µM (SF-268): 95% | growth at 0.01 µM (SNB-19): 92% | growth at 0.01 µM (LOX IMVI): 96% | growth at 0.01 µM (UACC-62): 95% | growth at 0.01 µM (OVCAR-5): 93% | growth at 0.01 µM (MCF7): 94% | growth at 0.1 µM (K562 [2]): 58% | growth at 0.1 µM (SNB-75): 90% | growth at 0.1 µM (SK-MEL-5 [3]): 96% | growth at 0.1 µM (NCI/ADR-RES): 98% | growth at 0.1 µM (786-0): 98% | growth at 0.1 µM (CAKI-1): 102% | growth at 0.1 µM (SN12C): 100% | growth at 1 µM (NCI-H226): 82% | growth at 1 µM (NCI-H23 [4]): 89% | growth at 1 µM (NCI-H322M): 88% | growth at 1 µM (HCT-15): 77% | growth at 1 µM (HT-29): 62% | growth at 1 µM (MDA-MB-468 [5]): 69% | growth at 100 µM (K562 [6]): 3% | growth at 100 µM (NCI-H23 [7]): -20% | growth at 100 µM (KM12): -17% | growth at 100 µM (SK-MEL-5 [8]): -68%
